# Laboratory results taken from patent US20230357253A1, “AGONISTS OF STIMULATOR OF INTERFERON GENES STING” (THE SCRIPPS RESEARCH INSTITUTE, priority 2020, published 2023).
# Target: human STING protein (Homo sapiens (Human), UniProt Q86WV6)
# Assay: WT STING binding assay (HTRF, competition with labeled 2′3′cGAMP)
# Settings: recombinant 6×His-tagged human STING, three hours at room temperature
# Protocol: WT STING binding assay (Cisbio, Catalog #64BDSTGPEH). […] Upon proximity of the two dyes, the excitation of the donor by the flash lamp on the PHERAstar FSX plate reader triggers a Fluorescence Resonance Energy Transfer (FRET) towards the acceptor, which in turn fluoresces at 665 nm. To assess the ability of the synthetic small molecule STING ligands to bind to human STING, a competitive assay format was applied. A 10-point titration of each of the synthetic ligands in 5 uL were transferred into a 384 well plate, followed by 20 uL of assay buffer containing the 6×His-tagged human STING protein and labeled 2′3′cGAMP ligand and incubated for three hours at room temperature. The raw values obtained from the PHERAstar were used to calculate the reported IC50 values (the signal is inversely proportional to the binding of the synthetic ligand) through curve fitting in Genedata. The percent inhibition was calculated based upon the maximal amount of binding by synthetic compound versus the maximum binding of unlabeled 2′3′ cGAMP which was used as a control in each assay.
# human STING protein, sequence (Q86WV6 whole entry): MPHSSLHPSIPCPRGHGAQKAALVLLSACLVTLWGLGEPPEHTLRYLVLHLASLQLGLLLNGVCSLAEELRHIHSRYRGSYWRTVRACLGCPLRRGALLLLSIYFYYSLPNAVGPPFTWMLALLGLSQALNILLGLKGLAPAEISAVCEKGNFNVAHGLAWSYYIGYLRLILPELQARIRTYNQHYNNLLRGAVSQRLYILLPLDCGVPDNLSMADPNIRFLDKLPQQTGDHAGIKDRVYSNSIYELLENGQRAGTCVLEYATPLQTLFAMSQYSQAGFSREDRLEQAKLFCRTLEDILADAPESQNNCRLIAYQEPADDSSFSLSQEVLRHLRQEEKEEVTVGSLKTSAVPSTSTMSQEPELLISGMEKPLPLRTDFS
row,Compound,IC50
1,"O=C(Nc1cc(OCCCCOc2cc(NC(=O)c3ccc4nnnn4n3)c(C(=O)O)cc2F)ccc1C(=O)O)c1ccc2nnnn2n1 [Compound 1, 4-(4-(4-carboxy-3-(tetrazolo[1,5-b]pyridazine-6-carboxamido)phenoxy)butoxy)-5-fluoro-2-(tetrazolo[1,5-b]pyridazine-6-carboxamido)benzoic acid]",100 to 1000 nM
2,"O=C(Nc1cc(CCOc2cc(NC(=O)c3ccc4nnnn4n3)c(C(=O)O)cc2F)c(F)cc1C(=O)O)c1ccc(-n2ccnc2)nn1 [Compound 2, 2-(6-(1H-imidazol-1-yl)pyridazine-3-carboxamido)-4-(2-(4-carboxy-2-fluoro-5-(tetrazolo[1,5-b]pyridazine-6-carboxamido)phenoxy)ethyl)-5-fluorobenzoic acid]",10 to 100 nM
3,"O=C(Nc1cc(C[S+]([O-])Cc2cc(NC(=O)c3ccc(-n4ccnc4)nn3)c(C(=O)O)cc2F)c(F)cc1C(=O)O)c1ccc(-n2ccnc2)nn1 [Compound 7, 4,4′-(sulfinylbis(methylene))bis(2-(6-(1H-imidazol-1-yl)pyridazine-3-carboxamido)-5-fluorobenzoic acid)]",10 to 100 nM
4,"CN(Cc1cc(NC(=O)c2ccc(-n3ccnc3)nn2)c(C(=O)O)cc1F)Cc1cc(NC(=O)c2ccc(-n3ccnc3)nn2)c(C(=O)O)cc1F [Compound 8, 4,4′-((methylazanediyl)bis(methylene))bis(2-(6-(1H-imidazol-1-yl)pyridazine-3-carboxamido)-5-fluorobenzoic acid)]",< 10 nM
5,O=C(Nc1cc(OCCCCOc2cc(NC(=O)c3ccc4nnnn4n3)c(C(=O)O)cc2F)c(F)cc1C(=O)O)c1ccc2nnnn2n1 [Compound 12],100 to 1000 nM
6,O=C(Nc1cc(OCCCCOc2ccc(C(=O)O)c(NC(=O)c3ccc(-n4ccnc4)nn3)c2)ccc1C(=O)O)c1ccc(-n2ccnc2)nn1 [Compound 16],100 to 1000 nM
7,O=C(Nc1cc(OCCCCOc2cnc(C(=O)O)c(NC(=O)c3ccc(-n4ccnc4)nn3)c2)c(F)cc1C(=O)O)c1ccc(-n2ccnc2)nn1 [Compound 69],100 to 1000 nM
8,CC(=O)Nc1cc(CCCc2cc(NC(=O)c3ccc(-n4ccnc4)nn3)c(C(=O)O)cc2F)ccc1C(=O)O [Compound 73],100 to 1000 nM
9,O=C(Nc1cc(OCCCCOc2cc(NC(=O)c3ccc(-n4ccnc4)nn3)c(C(=O)O)cc2Cl)ccc1C(=O)O)c1ccc(-n2ccnc2)nn1 [Compound 81],100 to 1000 nM
10,O=C(Nc1cc(CCCc2cc(NC(=O)c3ccc4cnnn4n3)c(C(=O)O)cc2F)c(F)cc1C(=O)O)c1ccc(O)nn1 [Compound 120],100 to 1000 nM
11,CCOC(=O)CCC(=O)c1cc2cc(OCCc3cc(NC(=O)c4ccc5nnnn5n4)c(C(=O)O)cc3F)c(OC)cc2s1 [Compound 122],100 to 1000 nM
12,O=C(Nc1cc(CCOc2cc(NC(=O)c3ccc(-n4ccnc4)nn3)c(P(=O)(O)O)cc2F)c(F)cc1C(=O)O)c1ccc(-n2ccnc2)nn1 [Compound 153],100 to 1000 nM
13,O=C(Nc1cc(OCCc2cc(NC(=O)c3ccc(-n4ccnc4)nn3)c(C(=O)O)cc2F)c(F)cc1C(=O)O)c1ccc(-c2cn[nH]c2)nn1 [Compound 158],100 to 1000 nM
14,O=C(Nc1cc(F)c(CCOc2cc(C(=O)O)c(NC(=O)c3ccc(-n4ccnc4)nn3)cc2F)cc1C(=O)O)c1ccc(-n2ccnc2)nn1 [Compound 178],100 to 1000 nM
15,O=C(Nc1cc(OCCc2cc(NC(=O)c3ccc(-n4ccnc4)nn3)c(-c3nn[nH]n3)cc2F)c(F)cc1C(=O)O)c1ccc(-n2ccnc2)nn1 [Compound 179],100 to 1000 nM
16,NC(=O)c1cc(F)c(CCOc2cc(NC(=O)c3ccc(-n4ccnc4)nn3)c(C(=O)O)cc2F)cc1NC(=O)c1ccc(-n2ccnc2)nn1 [Compound 186],> 1000 nM
17,COc1cc(NC(=O)c2ccc(-n3ccnc3)nn2)c(C(=O)O)c(F)c1OCCc1cc(NC(=O)c2ccc(-n3ccnc3)nn2)c(C(=O)O)cc1F [Compound 189],100 to 1000 nM
18,O=C(Nc1cc(CCOc2cc(NC(=O)c3ccc(-n4ccnc4)nn3)c(C(=O)O)cc2F)c(F)cc1CO)c1ccc(-n2ccnc2)nn1 [Compound 198],100 to 1000 nM
19,Cn1nccc1-c1ccc(C(=O)Nc2cc(CCCc3cc(NC(=O)c4ccc(-c5ccnn5C)nn4)c(C(=O)O)cc3F)c(F)cc2C(=O)O)nn1 [Compound 201],100 to 1000 nM
20,Cn1nccc1-c1ccc(C(=O)Nc2cc(CCOc3cc(NC(=O)c4ccc(-c5ccnn5C)nn4)c(C(=O)O)cc3F)c(F)cc2C(=O)O)nn1 [Compound 208],100 to 1000 nM
21,O=C(Nc1cc(OCCCOc2cc(NC(=O)c3ccc(-n4ccnc4)nn3)c(C(=O)O)cc2F)c(F)cc1C(=O)O)c1ccc(N2CCOCC2)nn1 [Compound 211],100 to 1000 nM

# Tested on: THP-1 Lucia ISG cells
# Assay: ISRE-luciferase assay (ISG-LUC activation)
# Format: cell-based
# Settings: Homo sapiens, THP1-Lucia ISG, 24 hours, luciferase reporter
# Protocol: ISRE-luciferase assay. THP-1 Lucia ISG cells were resuspended in low-serum growth media (2% FBS) at a density of 5×10^5 cells/ml and treated with test article or vehicle (DMSO). 50 μL of cells were seeded into each well of a 384-well white greiner plates and incubated for 24 hours. To evaluate expression of the luciferase reporter, 30 μl of Quanti-luc (Invivogen) detection reagent was added to each well and luminescence was read using an Envision plate reader (Perkin Elmer) set with an integration time of 0.1 seconds. For each cell type, luminescence signals for test article samples were normalized to vehicle-treated samples and reported as relative light units (RLU).
row,Compound,EC50
1,"O=C(Nc1cc(OCCCCOc2cc(NC(=O)c3ccc4nnnn4n3)c(C(=O)O)cc2F)ccc1C(=O)O)c1ccc2nnnn2n1 [Compound 1, 4-(4-(4-carboxy-3-(tetrazolo[1,5-b]pyridazine-6-carboxamido)phenoxy)butoxy)-5-fluoro-2-(tetrazolo[1,5-b]pyridazine-6-carboxamido)benzoic acid]",500 to 5000 nM
2,"O=C(Nc1cc(CCOc2cc(NC(=O)c3ccc4nnnn4n3)c(C(=O)O)cc2F)c(F)cc1C(=O)O)c1ccc(-n2ccnc2)nn1 [Compound 2, 2-(6-(1H-imidazol-1-yl)pyridazine-3-carboxamido)-4-(2-(4-carboxy-2-fluoro-5-(tetrazolo[1,5-b]pyridazine-6-carboxamido)phenoxy)ethyl)-5-fluorobenzoic acid]",< 50 nM
3,"O=C(Nc1cc(C[S+]([O-])Cc2cc(NC(=O)c3ccc(-n4ccnc4)nn3)c(C(=O)O)cc2F)c(F)cc1C(=O)O)c1ccc(-n2ccnc2)nn1 [Compound 7, 4,4′-(sulfinylbis(methylene))bis(2-(6-(1H-imidazol-1-yl)pyridazine-3-carboxamido)-5-fluorobenzoic acid)]",500 to 5000 nM
4,"CN(Cc1cc(NC(=O)c2ccc(-n3ccnc3)nn2)c(C(=O)O)cc1F)Cc1cc(NC(=O)c2ccc(-n3ccnc3)nn2)c(C(=O)O)cc1F [Compound 8, 4,4′-((methylazanediyl)bis(methylene))bis(2-(6-(1H-imidazol-1-yl)pyridazine-3-carboxamido)-5-fluorobenzoic acid)]",500 to 5000 nM
5,O=C(Nc1cc(OCCCCOc2cc(NC(=O)c3ccc4nnnn4n3)c(C(=O)O)cc2F)c(F)cc1C(=O)O)c1ccc2nnnn2n1 [Compound 12],50 to 500 nM
6,O=C(Nc1cc(OCCCCOc2ccc(C(=O)O)c(NC(=O)c3ccc(-n4ccnc4)nn3)c2)ccc1C(=O)O)c1ccc(-n2ccnc2)nn1 [Compound 16],> 5000 nM
7,COc1cc(C(=O)O)c(NC(=O)c2ccc(-n3ccnc3)nn2)cc1OCCc1cc(C(=O)O)c(NC(=O)c2ccc(-n3ccnc3)nn2)cc1Cl [Compound 156],50 to 500 nM
8,COC(=O)c1cc(F)c(OCCc2cc(NC(=O)c3ccc(-n4ccnc4)nn3)c(C(=O)OC)cc2C#N)cc1NC(=O)c1ccc(-n2ccnc2)nn1 [Compound 157],500 to 5000 nM
9,O=C(Nc1cc(CCCc2cc(NC(=O)c3ccc(-n4ccnc4)nn3)c(C(=O)O)cc2F)c(F)cc1C(=O)O)c1ccc(-c2cn[nH]c2)nn1 [Compound 159],50 to 500 nM
10,N#Cc1cc(C(=O)O)c(NC(=O)c2ccc(-n3ccnc3)nn2)cc1CCOc1cc(NC(=O)c2ccc(-n3ccnc3)nn2)c(C(=O)O)cc1F [Compound 162],50 to 500 nM
11,COC(=O)c1cc(F)c(CCOc2cc(NC(=O)c3ccc(-n4ccnc4)nn3)c(C(=O)OC)cc2C#N)cc1NC(=O)c1ccc(-n2ccnc2)nn1 [Compound 163],500 to 5000 nM
12,O=C(Nc1cc(CCCc2cc(NC(=O)c3ccc(-n4ccnc4)nn3)c(C(=O)O)s2)c(F)cc1C(=O)O)c1ccc(-n2ccnc2)nn1 [Compound 164],50 to 500 nM
13,COC(=O)c1cc(F)c(CCCc2cc(NC(=O)c3ccc(-n4ccnc4)nn3)c(C(=O)OC)s2)cc1NC(=O)c1ccc(-n2ccnc2)nn1 [Compound 165],50 to 500 nM
14,O=C(Nc1cc(OCCc2cc(C(=O)O)c(NC(=O)c3ccc(-n4ccnc4)nn3)cc2Cl)c(F)cc1C(=O)O)c1ccc(-n2ccnc2)nn1 [Compound 166],50 to 500 nM
15,O=C(Nc1cc(OCCCOc2cc(NC(=O)c3ccc(-n4ccnc4)nn3)c(C(=O)O)cc2F)c(F)cc1C(=O)O)c1ccc(-n2ccnc2)nn1 [Compound 168],50 to 500 nM
16,O=C(Nc1cc(OCCc2cc(C(=O)O)c(NC(=O)c3ccc4nnnn4n3)cc2F)c(F)cc1C(=O)O)c1ccc(-n2ccnc2)nn1 [Compound 169],50 to 500 nM
17,O=C(Nc1cc(CCCc2cc(NC(=O)c3ccc(-n4ccnc4)nn3)c(C(=O)O)cc2Cl)c(F)cc1C(=O)O)c1ccc(-n2ccnc2)nn1 [Compound 174],50 to 500 nM
18,O=C(Nc1cc(COc2cc(NC(=O)c3ccc(-n4ccnc4)nn3)c(C(=O)O)cc2F)c(F)cc1C(=O)O)c1ccc(-n2ccnc2)nn1 [Compound 175],500 to 5000 nM
19,O=C(Nc1cc(OCCc2c(F)cc(NC(=O)c3ccc(-n4ccnc4)nn3)c(C(=O)O)c2F)c(F)cc1C(=O)O)c1ccc(-n2ccnc2)nn1 [Compound 177],< 50 nM
20,O=C(Nc1cc(CCc2cc(C(=O)O)c(NC(=O)c3ccc(-n4ccnc4)nn3)cc2F)c(F)cc1C(=O)O)c1ccc(-n2ccnc2)nn1 [Compound 180],> 5000 nM
21,N#Cc1cc(C(=O)O)c(NC(=O)c2ccc(-n3ccnc3)nn2)cc1CCCc1cc(NC(=O)c2ccc(-n3ccnc3)nn2)c(C(=O)O)cc1F [Compound 182],50 to 500 nM
22,COC(=O)c1cc(F)c(OCCc2cc(C(=O)OC)c(NC(=O)c3ccc(-n4ccnc4)nn3)cc2C#N)cc1NC(=O)c1ccc(-n2ccnc2)nn1 [Compound 188],> 5000 nM
23,O=C(Nc1cc(OCc2cc(C(=O)O)c(NC(=O)c3ccc(-n4ccnc4)nn3)cc2F)c(F)cc1C(=O)O)c1ccc(-n2ccnc2)nn1 [Compound 190],> 5000 nM
24,O=C(Nc1cc(OCCOc2cc(C(=O)O)c(NC(=O)c3ccc(-n4ccnc4)nn3)cc2F)c(F)cc1C(=O)O)c1ccc(-n2ccnc2)nn1 [Compound 191],50 to 500 nM
25,CC(Cc1cc(NC(=O)c2ccc(-n3ccnc3)nn2)c(C(=O)O)cc1F)Cc1cc(NC(=O)c2ccc(-n3ccnc3)nn2)c(C(=O)O)cc1F [Compound 194],50 to 500 nM
26,O=C(Nc1cc(CCSc2cc(NC(=O)c3ccc(-n4ccnc4)nn3)c(C(=O)O)cc2F)c(F)cc1C(=O)O)c1ccc(-n2ccnc2)nn1 [Compound 195],< 50 nM
27,C=C(Cc1cc(NC(=O)c2ccc(-n3ccnc3)nn2)c(C(=O)O)cc1F)Cc1cc(NC(=O)c2ccc(-n3ccnc3)nn2)c(C(=O)O)cc1F [Compound 199],50 to 500 nM
28,O=C(Nc1cc(OCCc2cc(C(=O)O)c(NC(=O)c3ccc(-c4cn[nH]c4)nn3)cc2F)c(F)cc1C(=O)O)c1ccc(-c2cn[nH]c2)nn1 [Compound 204],50 to 500 nM
29,O=C(Nc1cc(CCOc2cc(NC(=O)c3ccc(-n4ccnc4)nn3)c(C(=O)O)cc2F)c(F)cc1C(=O)O)c1ccc(-c2cn[nH]c2)nn1 [Compound 205],< 50 nM
30,C#Cc1cc(NC(=O)c2ccc(-n3ccnc3)nn2)c(C(=O)O)cc1OCCc1cc(NC(=O)c2ccc(-n3ccnc3)nn2)c(C(=O)O)cc1F [Compound 209],< 50 nM
